Measurements reported in publication PMC11597207, “Synthesis and Anti-Inflammatory and Analgesic Potentials of Ethyl 2-(2,5-Dioxo-1-Phenylpyrrolidin-3-yl)-2-Methylpropanoate” (Pharmaceuticals, 2024).
Values joined by “and” are separate entries in the source; they are usually repeats but may differ in a detail not shown here. Identical values can stand only once.

Columns and labels:
[1] = tested on: carrageenan-induced paw edema; experiment: Carrageenan-induced paw edema model; type: in vivo; details: mice
Method: The anti-inflammatory activity of MAK01 was evaluated through a carrageenan-induced paw edema model. The mice, with weights ranging from 25 to 30 g, were separated into five distinct groups, these being Vehicle Group 1, Aspirin Group 2, and different concentrations of MAK01 in Groups 3–5. Each of these groups comprised five mice. The negative control group in the experiment received a specific solution comprising normal saline, DMSO, and Tween-80. The mixture contained 94% normal saline, 5% DMSO, and 1% Tween-80, delivered at a concentration of 10 mL per kg. In contrast, the positive control group in the assay received the comparator aspirin at a precise dose of 10 mg/kg. The test samples were administered at doses of 10 mg/kg, 20 mg/kg, and 30 mg/kg, given intra-peritoneally. After 30 min, a 2% carrageenan suspension (0.2 mL) was administered to each mouse in every group via a subcutaneous injection in the hind paw. In the experiment, a plethysmometer was used to precisely measure inflammation and edema. These measurements were taken at multiple time points both prior to and following the carrageenan administration. Specifically, the readings were recorded at 1, 2, 3, 4, and 5 h intervals to monitor the progress of the inflammatory response and paw swelling. These obtained results were then compared against the outcomes from the negative control group. The gathered data from the experiment, relating to the impact of the newly synthesized compounds on paw edema, were carefully processed to derive the percentage of edema inhibition. Using the below equation, the percent inhibition was calculated. % Inhibition=Ce−Te/Ce×100
In the formula, ‘Ce’ refers to the control group paw edema volume, while ‘Te’ denotes test groups’ paw edema volume.

mice = experiment: Acute toxicity in mice; type: in vivo
Method: The synthesized compound was assessed for its acute toxicity using mice sourced from the National Institute of Health in Pakistan. The mice for the experiment were categorized into several groups. Some groups were designated to receive the test samples, and another was set as a control group. […]. These compounds were first dissolved in normal saline before being administered. […]. The mice were monitored for a period of 24 h to 4 weeks following the administration of the pivalate-based Michael product. The study closely observed the mice for any irregular behavior, such as ataxia, aggressive reactions, and potential allergic symptoms, among others. Furthermore, any harmful outcomes or lethality were also recorded. These observations and recorded adverse events were compared between the group treated with the test compound and the control group. These comparisons offer valuable insights into the toxicity levels of the newly synthesized compounds [47].

COX-2 = biological target: T1, COX-2 (Homo sapiens, UniProt P35354); experiment: COX-2 inhibitory assay; type: biochemical
T1 construct: purchased Cayman Chemical Batch No.: G5234
T1 sequence (P35354 18-604): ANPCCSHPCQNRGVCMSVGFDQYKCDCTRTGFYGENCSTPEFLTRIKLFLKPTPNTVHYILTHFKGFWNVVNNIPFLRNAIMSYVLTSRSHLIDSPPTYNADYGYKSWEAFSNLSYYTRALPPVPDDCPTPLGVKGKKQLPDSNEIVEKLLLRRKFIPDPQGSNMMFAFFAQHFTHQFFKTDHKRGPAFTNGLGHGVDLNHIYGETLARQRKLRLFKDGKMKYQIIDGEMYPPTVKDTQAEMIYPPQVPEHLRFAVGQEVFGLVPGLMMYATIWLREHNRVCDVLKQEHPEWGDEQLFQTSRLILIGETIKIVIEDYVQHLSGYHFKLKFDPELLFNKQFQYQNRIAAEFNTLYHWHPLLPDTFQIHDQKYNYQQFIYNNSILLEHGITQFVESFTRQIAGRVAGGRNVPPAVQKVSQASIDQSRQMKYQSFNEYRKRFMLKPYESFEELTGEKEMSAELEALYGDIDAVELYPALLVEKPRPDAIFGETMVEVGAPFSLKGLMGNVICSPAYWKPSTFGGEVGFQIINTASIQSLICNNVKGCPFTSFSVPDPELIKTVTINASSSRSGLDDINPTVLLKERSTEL
Method: The inhibitory potential of synthesized MAK01 was assessed using the COX-2 inhibitory protocol. The process started with the preparation of a COX-2 enzyme solution with a concentration of 300 U per ml. The activation of the enzymes was achieved by taking and mixing 10 μL and 50 μL of the COX-2 enzyme solution and a co-factor solution, respectively. Once mixed, this solution needed to be chilled. The chilling process was carried out at 4 °C in an ice bath. The duration for this cooling phase was set at five to six minutes. […] It was made up of 0.1 M Tris buffer with a pH of 8.0, 1 mM of hematin, 0.9 mM of glutathione, and 0.24 mM of TMPD in a phosphate buffer. Following the initial steps, a test sample was prepared. The volume of this sample was fixed at 20 μL. The 20 μL sample was mixed with 60 μL COX-2 solution. After combining them, the sample and enzyme solution were kept at ambient temperature. The solution was allowed to rest for a duration from five to ten minutes. To start the reaction, 20 μL of 30 mM arachidonic acid was incorporated. Upon adding the acid, the solution was subjected to an incubation period. This period lasted for 15 min at a temperature of 37 °C. Post incubation, HCl was added to stop the reaction. The absorbance of this final solution was then measured. This was carried out using a UV–visible spectrophotometer at a specific 570 nm wavelength. Similarly, the above procedure was used for all the other concentrations of the test sample. The COX-2 enzyme inhibition was calculated as per the below equation. […] Using the below formula, the percent inhibition of each sample was calculated. % Inhibition=Abs. test sample−Abs. background/Abs. solvent blank−Abs. background×100
Using established protocols, the inhibitory potency of MAK01 against both COX-1 and COX-2 enzymes was assessed. This evaluation allowed for the determination of the selectivity of these new compounds. The IC50 values for both COX-1 and COX-2 were then used to calculate the selectivity index of the compound.

## CCOC(=O)C(C)(C)C1CC(=O)N(c2ccccc2)C1=O (centres unmarked) [MAK01, ethyl 2-(2,5-dioxo-1-phenylpyrrolidin-3-yl)-2-methylpropanoate]
[1]; dose 10 mg/kg, 1 h
  Paw Edema Inhibition in Percent: 30.3 ± 0.77 ^ns %
[1]; dose 10 mg/kg, 2 h
  Paw Edema Inhibition in Percent: 33.34 ± 0.98 %
[1]; dose 10 mg/kg, 3 h
  Paw Edema Inhibition in Percent: 19.62 ± 0.64 %
[1]; dose 10 mg/kg, 4 h
  Paw Edema Inhibition in Percent: 31.44 ± 0.74 %
[1]; dose 10 mg/kg, 5 h
  Paw Edema Inhibition in Percent: 31.22 ± 0.84 %
[1]; dose 20 mg/kg, 1 h
  Paw Edema Inhibition in Percent: 34.7 ± 0.74 ^ns %
[1]; dose 20 mg/kg, 2 h
  Paw Edema Inhibition in Percent: 34.7 ± 0.74% and 34.54 ± 0.76 %
[1]; dose 20 mg/kg, 3 h
  Paw Edema Inhibition in Percent: 21.42 ± 0.64 %
[1]; dose 20 mg/kg, 4 h
  Paw Edema Inhibition in Percent: 29.52 ± 0.63 %
[1]; dose 20 mg/kg, 5 h
  Paw Edema Inhibition in Percent: 31.85 ± 0.32 %
[1]; dose 30 mg/kg, 1 h
  Paw Edema Inhibition in Percent: 38.74 ± 0.81 ^ns %
[1]; dose 30 mg/kg, 2 h
  Paw Edema Inhibition in Percent: 39.20 ± 0.86 %
[1]; dose 30 mg/kg, 3 h
  Paw Edema Inhibition in Percent: 34.4 ± 0.64 %
[1]; dose 30 mg/kg, 4 h
  Paw Edema Inhibition in Percent: 37.64 ± 0.86 %
[1]; dose 30 mg/kg, 5 h
  Paw Edema Inhibition in Percent: 40.58 ± 0.84% and 40.58%
mice; both, mouse, in vivo, po
  Lethal dose: ~1000 mg per kg of body weight
mice; mice, oral, doses higher than 1000 mg per kg
  Signs of toxicity: distress, agitation, convulsions, discomfort, and abnormal behavior
COX-2
  IC50: 449 µM
COX-2; 62.5 μg/mL
  COX-2 percent inhibition: 40%
COX-2; 62.5 μg/mL, read-out: COX-2 percent inhibition
  inhibition at 62.5 µg/mL: 40.1%
COX-2; 125 μg/mL
  COX-2 percent inhibition: 49%
COX-2; 125 μg/mL, read-out: COX-2 percent inhibition
  inhibition at 125 µg/mL: 49.4%
COX-2; 250 μg/mL
  COX-2 percent inhibition: 59%
COX-2; 250 μg/mL, read-out: COX-2 percent inhibition
  inhibition at 250 µg/mL: 58.9%
COX-2; 500 μg/mL
  COX-2 percent inhibition: 68%
COX-2; 500 μg/mL, read-out: COX-2 percent inhibition
  inhibition at 500 µg/mL: 67.8%
COX-2; 1000 μg/mL
  COX-2 percent inhibition: 79%
COX-2; 1000 μg/mL, read-out: COX-2 percent inhibition
  inhibition at 1000 µg/mL: 78.7%
COX-2; from IC50 values of COX-1 and COX-2
  Selectivity for COX-2 compared to COX-1: 3 fold
